Here are results for six compounds from ChEMBL document CHEMBL1201862, “PubChem BioAssay data set” (2004).

The target of assay [1] is Dual specificity tyrosine-phosphorylation-regulated kinase 1A (Rattus norvegicus, UniProt Q63470). The format is biochemical, Homo sapiens.
Assay [2] in a line: Vero cell cytotoxicity, dose response, cytotoxicity control for Vif-APOBEC3G degradation inhibitor project, Vero cells (AID 1117358). To be noted: Human immunodeficiency virus 1, Vero. The format is functional.
The target in assay [3] is Dual specificity protein kinase CLK1 (Homo sapiens, UniProt P49759). Nature of the assay: CLK1 kinase inhibitors, off-target check, dose response, selectivity assay for Dyrk1A inhibitor project, biochemical, cherry-picked samples (AID 588811).
Chain of Dual specificity protein kinase CLK1 (P49759 whole entry): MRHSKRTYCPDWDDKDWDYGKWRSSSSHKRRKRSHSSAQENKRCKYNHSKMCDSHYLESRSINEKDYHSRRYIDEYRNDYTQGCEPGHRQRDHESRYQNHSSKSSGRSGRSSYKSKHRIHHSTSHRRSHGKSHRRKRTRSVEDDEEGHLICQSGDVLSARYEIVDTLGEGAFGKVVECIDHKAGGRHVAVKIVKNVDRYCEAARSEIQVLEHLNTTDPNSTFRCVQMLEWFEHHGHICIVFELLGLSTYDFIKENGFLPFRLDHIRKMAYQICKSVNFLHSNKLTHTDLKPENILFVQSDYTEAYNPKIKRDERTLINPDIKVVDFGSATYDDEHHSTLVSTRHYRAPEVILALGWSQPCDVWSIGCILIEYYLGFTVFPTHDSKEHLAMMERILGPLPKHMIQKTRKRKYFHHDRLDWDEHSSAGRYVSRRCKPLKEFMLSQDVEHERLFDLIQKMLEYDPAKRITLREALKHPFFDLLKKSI
For assay [4], the system named is A-375. Description: A375 melanoma cell viability reduction, dose response, counter-screen for MITF modulator project, cherry-pick samples, set 2 (AID 540335). Format: functional, cell-based. The note with it: Homo sapiens.
Assay [5] relates to A-375. Description: MITF: Counter assay: A375 proliferation Measured in Cell-Based System Using Plate Reader - 2084-03_Inhibitor_Dose_DryPowder_Activity. [Related pubchem assays (depositor defined):AID488944]. The note with it: Homo sapiens. Format: functional.
Assay [6] in a line: Luminescence Cell-Based Dose Retest to Confirm Inhibitors of Cancer Stem Cells. [Related pubchem assays (depositor defined):AID2717, AID2721]. Format: functional. To be noted: Homo sapiens.
Assay [7] concerns the target Matrix metalloproteinase-14 (Homo sapiens, UniProt P50281). Nature of the assay: Dose Response confirmation of uHTS hits for a small molecule inhibitors of MT1-MMP activation in a fluorescence assay set 2. The format is functional.
The nature of assay [8]: cytotoxicity in HMLE control line with eGFP shRNA, dose response, counter-screen for HMLE_sh_ECad selective toxicity project, cell-based, HMLE_sh_eGFP, luminescence (AID 463074).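 Note: HMLE human mammary epithelial cells expressing control shRNA against eGFP.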 Format: functional, Homo sapiens. (In general: A counterscreen serves to expose hits that act by an unwanted route or on another target.)
For assay [9], the target named is FAD-linked sulfhydryl oxidase ALR (Homo sapiens, UniProt P55789). Description: inhibitors of human ALR sulfhydryl oxidase, dose response, biochemical, H2O2 detection, luminescence, cherry-pick (AID 493248).
Chain of FAD-linked sulfhydryl oxidase ALR (P55789 whole entry): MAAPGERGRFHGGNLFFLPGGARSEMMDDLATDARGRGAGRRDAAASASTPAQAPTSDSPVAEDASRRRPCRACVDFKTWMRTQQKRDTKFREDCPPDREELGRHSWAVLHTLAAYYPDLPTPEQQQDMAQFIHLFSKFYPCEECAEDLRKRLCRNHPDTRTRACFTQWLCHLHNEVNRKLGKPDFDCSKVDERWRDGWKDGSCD
For assay [10], the target named is UDP-galactopyranose mutase (Mycobacterium tuberculosis, UniProt P9WIQ1). Nature of the assay: Inhibitors of Mycobacterium tuberculosis UDP-galactopyranose mutase (UGM) enzyme Measured in Biochemical System Using Plate Reader - 2105-02_Inhibitor_Dose_CherryPick_Activity. [Related pubchem assays (depositor defined):AID504439].
Chain of UDP-galactopyranose mutase (P9WIQ1 whole entry): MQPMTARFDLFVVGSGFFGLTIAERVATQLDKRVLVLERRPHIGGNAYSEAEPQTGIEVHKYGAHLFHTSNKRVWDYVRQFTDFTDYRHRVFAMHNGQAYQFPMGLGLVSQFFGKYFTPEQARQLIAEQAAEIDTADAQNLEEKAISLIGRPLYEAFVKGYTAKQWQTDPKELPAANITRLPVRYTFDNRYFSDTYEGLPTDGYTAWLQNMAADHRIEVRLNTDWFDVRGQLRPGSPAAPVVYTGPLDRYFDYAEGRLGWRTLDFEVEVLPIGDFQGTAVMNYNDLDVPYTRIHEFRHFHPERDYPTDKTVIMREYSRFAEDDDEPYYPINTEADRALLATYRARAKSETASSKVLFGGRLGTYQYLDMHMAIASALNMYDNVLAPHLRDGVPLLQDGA
A further assay deals with HEK293. Nature of the assay: cells. The format is functional, cell-based. To be noted: Homo sapiens.
The target of assay [11] is T1, Nuclear receptor subfamily 0 group B member 1 (Homo sapiens, UniProt P51843).
T1 sequence (P51843 whole entry): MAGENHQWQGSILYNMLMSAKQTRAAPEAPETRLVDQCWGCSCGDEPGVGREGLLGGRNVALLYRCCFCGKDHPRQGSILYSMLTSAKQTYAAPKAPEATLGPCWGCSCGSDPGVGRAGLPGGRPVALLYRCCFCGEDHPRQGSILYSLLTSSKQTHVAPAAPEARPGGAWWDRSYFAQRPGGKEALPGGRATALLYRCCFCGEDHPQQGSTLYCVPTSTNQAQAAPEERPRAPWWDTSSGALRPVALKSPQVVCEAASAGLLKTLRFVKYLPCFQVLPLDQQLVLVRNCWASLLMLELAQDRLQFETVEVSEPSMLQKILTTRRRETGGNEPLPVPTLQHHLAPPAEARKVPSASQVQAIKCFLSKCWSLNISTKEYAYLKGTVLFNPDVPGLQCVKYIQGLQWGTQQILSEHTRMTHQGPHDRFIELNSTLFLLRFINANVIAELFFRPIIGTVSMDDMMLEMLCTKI
Nature of the assay: Luminescence-based cell-based high throughput dose response assay for inhibitors of the orphan nuclear receptor subfamily 0, group B, member 1 (DAX1; NR0B1). [Related pubchem assays (depositor defined):AID504766, AID504790]. Format: functional.

For assay [12], the target named is T2, Tyrosine-protein phosphatase non-receptor type 7 (Homo sapiens, UniProt P35236).
T2 sequence (P35236 whole entry): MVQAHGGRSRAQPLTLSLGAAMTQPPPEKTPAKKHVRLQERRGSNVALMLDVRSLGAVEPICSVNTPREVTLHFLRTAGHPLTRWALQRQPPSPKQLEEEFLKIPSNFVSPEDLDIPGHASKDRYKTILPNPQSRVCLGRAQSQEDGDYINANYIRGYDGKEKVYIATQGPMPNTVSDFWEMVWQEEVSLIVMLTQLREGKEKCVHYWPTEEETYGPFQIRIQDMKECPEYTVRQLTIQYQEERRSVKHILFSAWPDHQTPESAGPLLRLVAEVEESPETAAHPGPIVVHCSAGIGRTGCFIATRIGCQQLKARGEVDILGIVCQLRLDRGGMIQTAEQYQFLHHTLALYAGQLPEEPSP
The format is functional.

Assay [13] addresses Glyceraldehyde-3-phosphate dehydrogenase (Homo sapiens, UniProt P04406).
In assay [14] the target is Heat shock cognate 71 kDa protein (Homo sapiens, UniProt P11142). Description: In Vitro Hsc70 Dose Response Fluorescence Polarization Assay. [Related pubchem assays: 1072 ]. Background: Fluorescence polarisation rises when a labelled molecule tumbles more slowly, as on binding a larger partner.
Chain of Heat shock cognate 71 kDa protein (P11142 whole entry): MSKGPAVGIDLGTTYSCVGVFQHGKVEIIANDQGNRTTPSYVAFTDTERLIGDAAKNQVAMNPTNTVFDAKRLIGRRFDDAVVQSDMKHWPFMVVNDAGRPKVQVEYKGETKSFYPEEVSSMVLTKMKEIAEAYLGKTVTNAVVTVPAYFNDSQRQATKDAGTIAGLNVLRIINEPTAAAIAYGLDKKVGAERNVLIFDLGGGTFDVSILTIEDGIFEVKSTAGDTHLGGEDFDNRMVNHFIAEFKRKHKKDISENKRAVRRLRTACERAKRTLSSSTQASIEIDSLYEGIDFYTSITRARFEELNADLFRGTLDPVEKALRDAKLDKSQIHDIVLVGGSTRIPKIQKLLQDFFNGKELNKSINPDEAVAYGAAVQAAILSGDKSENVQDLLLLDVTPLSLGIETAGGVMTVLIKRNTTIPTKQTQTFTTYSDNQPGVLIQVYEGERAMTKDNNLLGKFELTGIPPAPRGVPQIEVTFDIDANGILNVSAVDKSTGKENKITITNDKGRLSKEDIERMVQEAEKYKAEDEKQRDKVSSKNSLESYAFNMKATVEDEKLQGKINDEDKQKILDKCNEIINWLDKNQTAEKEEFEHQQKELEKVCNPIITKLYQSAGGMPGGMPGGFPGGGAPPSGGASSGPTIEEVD
The target in assay [15] is T3, Dual specificity protein phosphatase 6 (Rattus norvegicus, UniProt Q64346).
T3 sequence (Q64346 whole entry): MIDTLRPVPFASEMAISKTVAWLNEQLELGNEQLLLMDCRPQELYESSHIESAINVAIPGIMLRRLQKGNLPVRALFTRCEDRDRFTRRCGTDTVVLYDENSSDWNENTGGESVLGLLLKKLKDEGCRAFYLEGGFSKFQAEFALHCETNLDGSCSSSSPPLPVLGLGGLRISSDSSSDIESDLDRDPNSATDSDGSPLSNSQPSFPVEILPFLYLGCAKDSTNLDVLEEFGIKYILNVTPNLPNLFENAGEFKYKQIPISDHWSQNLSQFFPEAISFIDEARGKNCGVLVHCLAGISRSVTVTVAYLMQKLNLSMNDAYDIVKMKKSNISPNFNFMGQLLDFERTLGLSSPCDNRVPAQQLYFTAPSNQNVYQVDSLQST
Format: functional.

In assay [16] the target is Heat shock 70 kDa protein 1A (Homo sapiens, UniProt P0DMV8). Nature of the assay: Hsp70 inhibitors, SAR follow-up, biochemical, fluorescence polarization (AID 1072).
Chain of Heat shock 70 kDa protein 1A (P0DMV8 whole entry): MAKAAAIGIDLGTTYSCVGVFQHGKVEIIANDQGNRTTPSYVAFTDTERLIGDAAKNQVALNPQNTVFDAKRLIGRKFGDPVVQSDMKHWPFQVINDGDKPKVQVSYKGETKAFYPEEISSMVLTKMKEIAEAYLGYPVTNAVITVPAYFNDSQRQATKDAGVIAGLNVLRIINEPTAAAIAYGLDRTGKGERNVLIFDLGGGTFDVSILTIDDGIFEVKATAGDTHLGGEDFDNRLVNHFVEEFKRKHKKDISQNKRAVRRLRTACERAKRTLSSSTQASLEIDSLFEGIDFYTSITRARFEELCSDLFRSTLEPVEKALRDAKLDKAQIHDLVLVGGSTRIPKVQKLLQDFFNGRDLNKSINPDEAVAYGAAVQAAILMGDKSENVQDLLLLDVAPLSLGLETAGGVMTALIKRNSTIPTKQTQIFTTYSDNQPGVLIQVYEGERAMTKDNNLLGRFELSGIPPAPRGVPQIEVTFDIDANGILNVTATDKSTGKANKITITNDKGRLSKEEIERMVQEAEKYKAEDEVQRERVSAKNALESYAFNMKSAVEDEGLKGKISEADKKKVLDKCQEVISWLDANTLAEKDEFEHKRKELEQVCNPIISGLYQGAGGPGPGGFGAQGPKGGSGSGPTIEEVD
Assay [17] concerns the target T3, Dual specificity protein phosphatase 6.

Calls of active or inactive are those of the source.

Chain of Glyceraldehyde-3-phosphate dehydrogenase (P04406 whole entry): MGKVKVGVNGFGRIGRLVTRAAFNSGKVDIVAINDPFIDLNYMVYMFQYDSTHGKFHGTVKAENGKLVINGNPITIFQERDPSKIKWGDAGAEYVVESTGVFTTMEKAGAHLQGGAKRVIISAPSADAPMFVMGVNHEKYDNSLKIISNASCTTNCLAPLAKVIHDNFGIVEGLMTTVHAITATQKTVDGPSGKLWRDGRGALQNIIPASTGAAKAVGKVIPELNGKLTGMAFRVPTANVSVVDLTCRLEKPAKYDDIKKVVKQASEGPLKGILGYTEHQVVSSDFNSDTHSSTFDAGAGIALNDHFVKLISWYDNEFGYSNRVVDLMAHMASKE

In the case of `O=C(Nc1nc2ccc(Cl)cc2s1)C1CCCO1` (stereo not drawn), the AC50 is 2.01 µM (active) in [1] and 2.03 µM (active) in assay [3]. For the same compound, the CC50 in [2] is > 40 µM (active).

For the compound `CC(=O)c1ccc(N/C=C/C(=O)c2ccc(Br)cc2)cc1`, the half-maximal activity concentration (AC50) in the assay on A-375 [4] and in the assay on A-375 [5] was > 35 µM (active) throughout.

Take `O=C(NNc1c2ccccc2nc2ccccc12)c1ccccc1O`: the concentration at half-maximal activity (AC50) in assay [6] was 18.3 µM (active); in assay [8], 22.8 µM (active); in assay [9] it was 0.08 µM (active). The IC50 in [7] was 60.8 µM (inactive).

Consider `Cc1cc(C)c(S(=O)(=O)Nc2ccc(C(=O)O)cc2)cc1S(=O)(=O)Nc1ccc(C(=O)O)cc1`, for which the AC50 in [10] is 423 µM (active).

In the case of `O=C(CSc1nnc(NC2CCCCC2)s1)Nc1ccc2c(c1)C(=O)c1ccccc1C2=O`, the IC50 (in the assay with HEK293; in assay [11]) was > 67.5 µM (inactive) in each case.

As to `Cc1cc(I)cc2c1NC(C(=O)O)C1CC=CC21` (stereo not drawn), the IC50 in assay [12] was > 100 µM (not active); in assay [13], > 100 µM (not active); in assay [14] it was > 100 µM (not active); in assay [15], > 100 µM (inactive); in assay [16] it was > 100 µM (not active); in assay [17], > 100 µM (inactive).

As usually defined, the AC50 is the midpoint of the concentration-response curve, whichever way the signal moves. As usually defined, the CC50 is the concentration that lowers cell viability or growth by half. In general, IC50 refers to the midpoint of a concentration-inhibition curve.
